In ChEMBL document CHEMBL5463727, “Data for DCP probe SGK3-PROTAC1” (2023):
Active and inactive are the calls of the source. The rule behind the calls is not given here.

Assays:
[1] = target: MAP kinase-activated protein kinase 5 (Homo sapiens) (UniProt Q8IW41); assay: % Activity remaining of PRAK in the Dundee kinase panel at 1.0 µM; conditions: Compound concentration 1.0 uM
[2] = target: Serine/threonine-protein kinase STK11 (Homo sapiens) (UniProt Q15831); assay: % Activity remaining of LKB1 in the Dundee kinase panel at 1.0 µM; conditions: Compound concentration 1.0 uM
[3] = target: Angiopoietin-1 receptor (Homo sapiens) (UniProt Q02763); assay: % Activity remaining of TIE2 in the Dundee kinase panel at 1.0 µM; conditions: Compound concentration 1.0 uM
[4] = target: Interleukin-1 receptor-associated kinase 4 (Homo sapiens) (UniProt Q9NWZ3); assay: % Activity remaining of IRAK4 in the Dundee kinase panel at 1.0 µM; conditions: Compound concentration 1.0 uM
[5] = target: Serine/threonine-protein kinase D1 (Homo sapiens) (UniProt Q15139); assay: % Activity remaining of PKD1 in the Dundee kinase panel at 1.0 µM; conditions: Compound concentration 1.0 uM
[6] = target: MAP/microtubule affinity-regulating kinase 4 (Homo sapiens) (UniProt Q96L34); assay: % Activity remaining of MARK4 in the Dundee kinase panel at 1.0 µM; conditions: Compound concentration 1.0 uM
[7] = target: Serine/threonine-protein kinase OSR1 (Homo sapiens) (UniProt O95747); assay: % Activity remaining of OSR1 in the Dundee kinase panel at 1.0 µM; conditions: Compound concentration 1.0 uM
[8] = target: Dual specificity protein kinase TTK (Homo sapiens) (UniProt P33981); assay: % Activity remaining of TTK in the Dundee kinase panel at 1.0 µM; conditions: Compound concentration 1.0 uM
[9] = target: Mitogen-activated protein kinase kinase kinase 9 (Homo sapiens) (UniProt P80192); assay: % Activity remaining of MLK1 in the Dundee kinase panel at 1.0 µM; conditions: Compound concentration 1.0 uM
Chain of Mitogen-activated protein kinase kinase kinase 9 (Homo sapiens) (P80192 whole entry, looked up): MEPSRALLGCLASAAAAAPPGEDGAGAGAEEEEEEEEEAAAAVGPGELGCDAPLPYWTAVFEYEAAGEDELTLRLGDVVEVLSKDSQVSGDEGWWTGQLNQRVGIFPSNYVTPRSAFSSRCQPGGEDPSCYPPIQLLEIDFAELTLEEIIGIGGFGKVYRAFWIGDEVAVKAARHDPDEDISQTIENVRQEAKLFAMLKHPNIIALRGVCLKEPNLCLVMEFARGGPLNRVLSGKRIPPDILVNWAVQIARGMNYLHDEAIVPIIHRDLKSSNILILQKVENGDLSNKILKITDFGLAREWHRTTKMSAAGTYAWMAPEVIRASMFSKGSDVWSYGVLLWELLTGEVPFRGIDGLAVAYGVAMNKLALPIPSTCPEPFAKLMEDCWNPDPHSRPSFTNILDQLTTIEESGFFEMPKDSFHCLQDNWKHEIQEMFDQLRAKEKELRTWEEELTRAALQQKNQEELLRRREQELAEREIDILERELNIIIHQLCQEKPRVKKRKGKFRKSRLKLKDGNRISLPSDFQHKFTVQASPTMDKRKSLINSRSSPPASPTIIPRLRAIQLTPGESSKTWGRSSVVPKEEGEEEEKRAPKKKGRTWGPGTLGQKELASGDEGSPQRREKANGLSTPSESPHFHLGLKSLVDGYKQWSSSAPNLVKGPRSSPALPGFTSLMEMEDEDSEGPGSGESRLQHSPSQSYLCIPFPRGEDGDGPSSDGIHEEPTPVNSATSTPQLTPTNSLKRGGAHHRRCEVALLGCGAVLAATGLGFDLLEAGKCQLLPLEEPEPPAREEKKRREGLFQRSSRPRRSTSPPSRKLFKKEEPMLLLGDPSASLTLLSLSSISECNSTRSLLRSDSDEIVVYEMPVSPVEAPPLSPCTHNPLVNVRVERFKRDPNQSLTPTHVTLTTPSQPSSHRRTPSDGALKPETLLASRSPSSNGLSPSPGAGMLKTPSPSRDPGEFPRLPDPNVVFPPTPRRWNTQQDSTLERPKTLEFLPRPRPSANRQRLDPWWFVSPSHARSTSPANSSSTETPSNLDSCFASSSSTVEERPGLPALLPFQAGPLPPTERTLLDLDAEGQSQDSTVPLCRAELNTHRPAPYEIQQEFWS

[10] = target: Insulin-like growth factor 1 receptor (Homo sapiens) (UniProt P08069); assay: % Activity remaining of IGF-1R in the Dundee kinase panel at 1.0 µM; conditions: Compound concentration 1.0 uM
[11] = target: Ephrin type-B receptor 1 (Homo sapiens) (UniProt P54762); assay: % Activity remaining of EPH-B1 in the Dundee kinase panel at 1.0 µM; conditions: Compound concentration 1.0 uM
[12] = target: Serine/threonine-protein kinase TAO1 (Homo sapiens) (UniProt Q7L7X3); assay: % Activity remaining of TAO1 in the Dundee kinase panel at 1.0 µM; conditions: Compound concentration 1.0 uM
Chain of Serine/threonine-protein kinase TAO1 (Homo sapiens) (Q7L7X3 whole entry): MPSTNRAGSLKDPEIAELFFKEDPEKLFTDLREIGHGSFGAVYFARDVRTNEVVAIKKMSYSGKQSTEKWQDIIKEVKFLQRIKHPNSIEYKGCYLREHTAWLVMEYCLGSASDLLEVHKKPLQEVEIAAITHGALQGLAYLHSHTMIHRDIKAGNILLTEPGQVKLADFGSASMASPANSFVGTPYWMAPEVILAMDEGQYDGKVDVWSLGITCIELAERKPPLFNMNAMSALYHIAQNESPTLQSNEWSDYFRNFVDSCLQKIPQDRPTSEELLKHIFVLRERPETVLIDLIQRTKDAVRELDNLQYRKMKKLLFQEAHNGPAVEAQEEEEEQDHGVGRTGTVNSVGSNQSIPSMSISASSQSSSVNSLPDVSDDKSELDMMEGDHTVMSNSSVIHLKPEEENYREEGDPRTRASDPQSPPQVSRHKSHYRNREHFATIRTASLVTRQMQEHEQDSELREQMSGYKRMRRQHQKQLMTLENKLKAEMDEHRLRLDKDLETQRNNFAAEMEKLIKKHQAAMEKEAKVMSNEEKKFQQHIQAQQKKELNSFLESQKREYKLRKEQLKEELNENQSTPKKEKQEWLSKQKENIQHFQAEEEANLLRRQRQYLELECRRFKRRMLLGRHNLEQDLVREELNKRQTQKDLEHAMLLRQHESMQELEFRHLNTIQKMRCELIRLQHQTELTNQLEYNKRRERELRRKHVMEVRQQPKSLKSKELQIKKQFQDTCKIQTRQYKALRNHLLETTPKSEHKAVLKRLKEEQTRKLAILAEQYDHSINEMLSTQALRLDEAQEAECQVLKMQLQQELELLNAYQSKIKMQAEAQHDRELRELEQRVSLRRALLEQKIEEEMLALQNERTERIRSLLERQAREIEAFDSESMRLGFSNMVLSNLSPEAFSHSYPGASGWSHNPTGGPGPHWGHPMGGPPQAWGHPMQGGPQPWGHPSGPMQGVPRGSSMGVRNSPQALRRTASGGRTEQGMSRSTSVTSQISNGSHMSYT

[13] = target: Serine/threonine-protein kinase Sgk3 (Homo sapiens, UniProt Q96BR1); assay: SGK3 radioactive filter binding assay using 33P ATP (Dundee kinase screen)
Chain of Serine/threonine-protein kinase Sgk3 (Q96BR1 whole entry): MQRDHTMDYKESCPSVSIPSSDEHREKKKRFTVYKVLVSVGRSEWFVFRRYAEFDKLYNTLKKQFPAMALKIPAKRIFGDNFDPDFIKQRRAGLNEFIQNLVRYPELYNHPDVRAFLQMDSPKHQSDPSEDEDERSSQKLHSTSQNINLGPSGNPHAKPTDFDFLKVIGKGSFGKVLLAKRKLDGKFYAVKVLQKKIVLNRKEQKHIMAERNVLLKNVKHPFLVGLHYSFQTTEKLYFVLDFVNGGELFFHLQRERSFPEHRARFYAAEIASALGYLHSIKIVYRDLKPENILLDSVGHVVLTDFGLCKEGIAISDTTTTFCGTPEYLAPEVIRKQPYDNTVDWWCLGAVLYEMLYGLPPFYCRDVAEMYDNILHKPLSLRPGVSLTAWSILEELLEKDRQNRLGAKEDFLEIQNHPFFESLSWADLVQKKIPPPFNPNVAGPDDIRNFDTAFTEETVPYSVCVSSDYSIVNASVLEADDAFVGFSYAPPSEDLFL

[14] = target: Cyclin-dependent kinase 2/cyclin A (Homo sapiens) (UniProt P24941+P20248+P78396); assay: % Activity remaining of CDK2-Cyclin A in the Dundee kinase panel at 1.0 µM; assay type: protein-complex assay; conditions: Compound concentration 1.0 uM
[15] = target: Aurora kinase A (Homo sapiens) (UniProt O14965); assay: % Activity remaining of Aurora A in the Dundee kinase panel at 1.0 µM; conditions: Compound concentration 1.0 uM
[16] = target: Dual specificity protein kinase CLK2 (Homo sapiens) (UniProt P49760); assay: % Activity remaining of CLK2 in the Dundee kinase panel at 1.0 µM; conditions: Compound concentration 1.0 uM
[17] = target: Casein kinase II subunit alpha (Homo sapiens) (UniProt P68400); assay: % Activity remaining of CK2 in the Dundee kinase panel at 1.0 µM; conditions: Compound concentration 1.0 uM
Chain of Casein kinase II subunit alpha (Homo sapiens) (P68400 whole entry, looked up): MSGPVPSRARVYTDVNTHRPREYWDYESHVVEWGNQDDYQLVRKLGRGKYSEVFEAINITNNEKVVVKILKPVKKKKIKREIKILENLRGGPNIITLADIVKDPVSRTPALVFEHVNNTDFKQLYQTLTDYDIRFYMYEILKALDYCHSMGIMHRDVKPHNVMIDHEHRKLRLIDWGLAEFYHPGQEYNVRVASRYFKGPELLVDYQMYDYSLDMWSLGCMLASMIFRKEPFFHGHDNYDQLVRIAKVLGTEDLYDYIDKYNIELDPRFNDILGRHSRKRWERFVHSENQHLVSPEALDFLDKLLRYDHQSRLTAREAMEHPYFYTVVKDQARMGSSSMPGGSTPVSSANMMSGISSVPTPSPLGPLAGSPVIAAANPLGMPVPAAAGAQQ

[18] = target: Calcium/calmodulin-dependent protein kinase type 1 (Homo sapiens) (UniProt Q14012); assay: % Activity remaining of CAMK1 in the Dundee kinase panel at 1.0 µM; conditions: Compound concentration 1.0 uM
[19] = target: Serine/threonine-protein kinase tousled-like 1 (Homo sapiens) (UniProt Q9UKI8); assay: % Activity remaining of TLK1 in the Dundee kinase panel at 1.0 µM; conditions: Compound concentration 1.0 uM
[20] = target: Serine/threonine-protein kinase PAK 5 (Homo sapiens) (UniProt Q9P286); assay: % Activity remaining of PAK5 in the Dundee kinase panel at 1.0 µM; conditions: Compound concentration 1.0 uM
[21] = target: Protein kinase C gamma type (Homo sapiens) (UniProt P05129); assay: % Activity remaining of PKC gamma in the Dundee kinase panel at 1.0 µM; conditions: Compound concentration 1.0 uM
[22] = target: Testis-specific serine/threonine-protein kinase 1 (Homo sapiens) (UniProt Q9BXA7); assay: % Activity remaining of TSSK1 in the Dundee kinase panel at 1.0 µM; conditions: Compound concentration 1.0 uM
[23] = target: Serine/threonine-protein kinase PAK 6 (Homo sapiens) (UniProt Q9NQU5); assay: % Activity remaining of PAK6 in the Dundee kinase panel at 1.0 µM; conditions: Compound concentration 1.0 uM
[24] = target: Mitogen-activated protein kinase 15 (Homo sapiens) (UniProt Q8TD08); assay: % Activity remaining of ERK8 in the Dundee kinase panel at 1.0 µM; conditions: Compound concentration 1.0 uM
Chain of Mitogen-activated protein kinase 15 (Homo sapiens) (Q8TD08 whole entry): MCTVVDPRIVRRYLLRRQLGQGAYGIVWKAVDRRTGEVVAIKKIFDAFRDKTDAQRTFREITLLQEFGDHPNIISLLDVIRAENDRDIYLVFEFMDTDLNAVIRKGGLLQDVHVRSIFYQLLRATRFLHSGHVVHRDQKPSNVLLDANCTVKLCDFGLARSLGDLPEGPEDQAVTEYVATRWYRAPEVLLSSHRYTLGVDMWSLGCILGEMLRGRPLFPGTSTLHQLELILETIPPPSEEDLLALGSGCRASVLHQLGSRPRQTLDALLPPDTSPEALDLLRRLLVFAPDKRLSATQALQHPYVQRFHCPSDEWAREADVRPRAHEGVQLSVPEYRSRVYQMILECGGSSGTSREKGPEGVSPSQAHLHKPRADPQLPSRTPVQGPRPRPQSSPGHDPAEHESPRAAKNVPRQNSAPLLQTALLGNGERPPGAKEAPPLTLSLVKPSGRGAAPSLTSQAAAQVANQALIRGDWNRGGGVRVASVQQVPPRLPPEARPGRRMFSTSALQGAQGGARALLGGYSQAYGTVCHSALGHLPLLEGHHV

[25] = target: Serine/threonine-protein kinase Sgk3 (Homo sapiens) (UniProt Q96BR1); assay: SGK3 degradation assay at 100 nM (48 h incubation, no effect on RPS6KB1, SGK1 and SGK2); assay type: functional; set-up: compound concentration 100 nM
Chain of Serine/threonine-protein kinase Sgk3 (Homo sapiens) (Q96BR1 whole entry): as the sequence (Q96BR1 whole entry) above

[26] = target: Serine/threonine-protein kinase ULK1 (Homo sapiens) (UniProt O75385); assay: % Activity remaining of ULK1 in the Dundee kinase panel at 1.0 µM; conditions: Compound concentration 1.0 uM
[27] = target: Phosphorylase b kinase regulatory subunit alpha, liver isoform (Homo sapiens) (UniProt P46019); assay: % Activity remaining of PHK in the Dundee kinase panel at 1.0 µM; conditions: Compound concentration 1.0 uM
[28] = target: 3-phosphoinositide-dependent protein kinase 1 (Homo sapiens) (UniProt O15530); assay: % Activity remaining of PDK1 in the Dundee kinase panel at 1.0 µM; conditions: Compound concentration 1.0 uM
[29] = target: High affinity nerve growth factor receptor (Homo sapiens) (UniProt P04629); assay: % Activity remaining of TrkA in the Dundee kinase panel at 1.0 µM; conditions: Compound concentration 1.0 uM
[30] = target: Mitogen-activated protein kinase 14 (Homo sapiens) (UniProt Q16539); assay: % Activity remaining of p38 alpha MAPK in the Dundee kinase panel at 1.0 µM; conditions: Compound concentration 1.0 uM
Chain of Mitogen-activated protein kinase 14 (Homo sapiens) (Q16539 whole entry): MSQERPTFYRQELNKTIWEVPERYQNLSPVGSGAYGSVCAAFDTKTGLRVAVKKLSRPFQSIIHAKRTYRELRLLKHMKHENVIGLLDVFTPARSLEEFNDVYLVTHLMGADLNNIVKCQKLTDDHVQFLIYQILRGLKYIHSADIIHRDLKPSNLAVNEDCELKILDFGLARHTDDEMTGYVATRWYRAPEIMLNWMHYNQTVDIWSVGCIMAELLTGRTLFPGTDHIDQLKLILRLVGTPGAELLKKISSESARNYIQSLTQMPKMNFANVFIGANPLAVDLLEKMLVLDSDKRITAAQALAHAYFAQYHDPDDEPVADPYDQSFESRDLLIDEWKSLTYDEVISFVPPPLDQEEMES

[31] = target: Serine/threonine-protein kinase pim-1 (Homo sapiens) (UniProt P11309); assay: % Activity remaining of PIM1 in the Dundee kinase panel at 1.0 µM; conditions: Compound concentration 1.0 uM
Chain of Serine/threonine-protein kinase pim-1 (Homo sapiens) (P11309 whole entry, looked up): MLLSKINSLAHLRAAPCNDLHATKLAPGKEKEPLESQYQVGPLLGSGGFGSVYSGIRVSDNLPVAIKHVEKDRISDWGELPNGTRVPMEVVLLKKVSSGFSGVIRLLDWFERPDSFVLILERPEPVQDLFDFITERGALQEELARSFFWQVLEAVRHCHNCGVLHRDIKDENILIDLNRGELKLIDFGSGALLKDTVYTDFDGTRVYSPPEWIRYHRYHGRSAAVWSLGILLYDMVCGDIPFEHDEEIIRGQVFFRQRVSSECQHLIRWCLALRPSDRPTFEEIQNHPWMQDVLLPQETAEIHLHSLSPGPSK

[32] = target: Serine/threonine-protein kinase 26 (Homo sapiens) (UniProt Q9P289); assay: % Activity remaining of MST4 in the Dundee kinase panel at 1.0 µM; conditions: Compound concentration 1.0 uM
[33] = target: Tyrosine-protein kinase Yes (Homo sapiens) (UniProt P07947); assay: % Activity remaining of YES1 in the Dundee kinase panel at 1.0 µM; conditions: Compound concentration 1.0 uM
Chain of Tyrosine-protein kinase Yes (Homo sapiens) (P07947 2-543 limits assumed): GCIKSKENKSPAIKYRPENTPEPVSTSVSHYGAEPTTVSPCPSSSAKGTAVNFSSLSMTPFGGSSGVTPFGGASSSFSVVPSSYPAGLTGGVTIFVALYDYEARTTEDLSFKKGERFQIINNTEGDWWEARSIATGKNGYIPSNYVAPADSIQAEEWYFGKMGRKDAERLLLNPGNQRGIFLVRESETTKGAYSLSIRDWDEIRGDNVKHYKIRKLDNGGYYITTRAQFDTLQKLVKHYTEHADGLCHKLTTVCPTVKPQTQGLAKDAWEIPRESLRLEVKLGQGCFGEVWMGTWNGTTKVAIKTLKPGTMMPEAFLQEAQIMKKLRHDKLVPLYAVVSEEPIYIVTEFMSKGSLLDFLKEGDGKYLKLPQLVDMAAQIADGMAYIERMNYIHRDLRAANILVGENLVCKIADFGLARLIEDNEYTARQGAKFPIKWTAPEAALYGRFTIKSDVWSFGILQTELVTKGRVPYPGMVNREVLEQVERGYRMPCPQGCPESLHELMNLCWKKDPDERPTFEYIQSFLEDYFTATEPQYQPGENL

[34] = target: Mitogen-activated protein kinase 3 (Homo sapiens) (UniProt P27361); assay: % Activity remaining of ERK1 in the Dundee kinase panel at 1.0 µM; conditions: Compound concentration 1.0 uM
[35] = target: Protein kinase C alpha type (Homo sapiens) (UniProt P17252); assay: % Activity remaining of PKC alpha in the Dundee kinase panel at 1.0 µM; conditions: Compound concentration 1.0 uM
[36] = target: Serine/threonine-protein kinase 33 (Homo sapiens) (UniProt Q9BYT3); assay: % Activity remaining of STK33 in the Dundee kinase panel at 1.0 µM; conditions: Compound concentration 1.0 uM
[37] = target: Serine/threonine-protein kinase BRSK1 (Homo sapiens) (UniProt Q8TDC3); assay: % Activity remaining of BRSK1 in the Dundee kinase panel at 1.0 µM; conditions: Compound concentration 1.0 uM
[38] = target: Serine/threonine-protein kinase PINK1, mitochondrial (Homo sapiens) (UniProt Q9BXM7); assay: % Activity remaining of PINK in the Dundee kinase panel at 1.0 µM; conditions: Compound concentration 1.0 uM
[39] = target: Ephrin type-A receptor 2 (Homo sapiens) (UniProt P29317); assay: % Activity remaining of EPH-A2 in the Dundee kinase panel at 1.0 µM; conditions: Compound concentration 1.0 uM

Row | SMILES | % Activity remaining [1] | % Activity remaining [2] | % Activity remaining [3] | % Activity remaining [4] | % Activity remaining [5] | % Activity remaining [6] | % Activity remaining [7] | % Activity remaining [8] | % Activity remaining [9] | % Activity remaining [10] | % Activity remaining [11] | % Activity remaining [12] | IC50 [13] | % Activity remaining [14] | % Activity remaining [15] | % Activity remaining [16] | % Activity remaining [17] | % Activity remaining [18] | % Activity remaining [19] | % Activity remaining [20] | also measured
1 | Cc1ccc(F)c(S(=O)(=O)Nc2ccc(-c3nc(OC[C@H]4CN(CCCCCCOCCOCCOCC(=O)N[C@H](C(=O)N5C[C@H](O)C[C@H]5C(=O)NCc5ccc(-c6scnc6C)cc5)C(C)(C)C)CCO4)c4cn[nH]c4n3)cc2)c1 | 115% | 105% | 63.8% | 114% | 94% | 105% | 103% | 89.4% | 81.9% | 82.4% | 99.9% | 99% | 300 nM (active) | 101% | 90.3% | 104% | 90.2% | 86.3% | 102% | 87.6% | % Activity remaining [21]: 103%; % Activity remaining [22]: 115%; % Activity remaining [23]: 97.9%; % Activity remaining [24]: 94.2%; Degradation [25]: 65%; % Activity remaining [26]: 116%; % Activity remaining [27]: 113%; % Activity remaining [28]: 99.3%; % Activity remaining [29]: 112%; % Activity remaining [30]: 125%; % Activity remaining [31]: 94.5%; % Activity remaining [32]: 106%; % Activity remaining [33]: 108%; % Activity remaining [34]: 103%; % Activity remaining [35]: 121%; % Activity remaining [36]: 110%; % Activity remaining [37]: 108%; % Activity remaining [38]: 108%; % Activity remaining [39]: 94.2%
2 | Cc1ccc(F)c(S(=O)(=O)Nc2ccc(-c3nc(OC[C@H]4CN(CCCCCCOCCOCCOCC(=O)N[C@H](C(=O)N5C[C@@H](O)C[C@H]5C(=O)NCc5ccc(-c6scnc6C)cc5)C(C)(C)C)CCO4)c4cn[nH]c4n3)cc2)c1 | 119% | 112% | 80.8% | 98% | 91.7% | 100% | 118% | 99.4% | 93.9% | 93.2% | 108% | 105% | 600 nM (not active) | 103% | 91.4% | 84.8% | 96.4% | 105% | 109% | 105% | % Activity remaining [21]: 99.9%; % Activity remaining [22]: 113%; % Activity remaining [23]: 99.5%; % Activity remaining [24]: 86.4%; Degradation [25]: 0%; % Activity remaining [26]: 112%; % Activity remaining [27]: 122%; % Activity remaining [28]: 86.5%; % Activity remaining [29]: 102%; % Activity remaining [30]: 109%; % Activity remaining [31]: 96.5%; % Activity remaining [32]: 99%; % Activity remaining [33]: 105%; % Activity remaining [34]: 101%; % Activity remaining [35]: 118%; % Activity remaining [36]: 109%; % Activity remaining [37]: 106%; % Activity remaining [38]: 109%; % Activity remaining [39]: 104%
